These results are taken from article PMC9672091, “Ameliorative effect of vanillin on scopolamine-induced dementia-like cognitive impairment in a mouse model” (Frontiers in Neuroscience, 2022).

The test concerns the target T1, acetylcholinesterase enzyme (from electric eel) (Electrophorus electricus, UniProt O42275).
T1 construct: gene ache; commercial enzyme from electric eel (Sigma-Aldrich), native source; no construct or oligomer details printed
Briefly: modified Ellman assay, absorbance at […] nm. The test is classed as biochemical.

T1 sequence (O42275 24-633): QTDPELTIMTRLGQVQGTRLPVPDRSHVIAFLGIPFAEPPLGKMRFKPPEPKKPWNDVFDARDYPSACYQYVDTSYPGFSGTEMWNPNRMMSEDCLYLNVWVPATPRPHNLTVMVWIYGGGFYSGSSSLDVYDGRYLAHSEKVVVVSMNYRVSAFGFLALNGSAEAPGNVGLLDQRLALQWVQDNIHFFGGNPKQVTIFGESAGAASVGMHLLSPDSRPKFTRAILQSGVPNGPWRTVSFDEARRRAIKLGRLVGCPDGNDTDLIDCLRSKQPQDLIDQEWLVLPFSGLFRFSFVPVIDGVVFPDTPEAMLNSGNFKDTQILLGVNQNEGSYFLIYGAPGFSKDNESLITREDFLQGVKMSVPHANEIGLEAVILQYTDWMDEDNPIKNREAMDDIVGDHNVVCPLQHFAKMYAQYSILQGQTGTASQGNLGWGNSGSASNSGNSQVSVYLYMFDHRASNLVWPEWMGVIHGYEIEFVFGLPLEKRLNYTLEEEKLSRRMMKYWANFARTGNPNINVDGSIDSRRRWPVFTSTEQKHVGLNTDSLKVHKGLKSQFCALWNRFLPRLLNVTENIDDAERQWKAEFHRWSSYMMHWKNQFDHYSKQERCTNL

Consider `COc1cc(C=O)ccc1O` [Vanillin], for which the IC50 was 33 µM.
